Literature values as cited in patent US6635803B1, “Method to improve drought tolerance in plants” (Regents of the University of California, priority 1999, dated 2003).

Columns and labels:
[1] = tested on: K+in channels in guard cells; conditions: cytosolic second messengers
K+in channel = conditions: 10 mM

Compound	effect on K+in channels [1]	block of K+in channel currents (K+in channel)	final stomatal apertures (stomata)
O=P(O)(O)O[C@@H]1[C@H](O)[C@H](O)[C@@H](OP(=O)(O)O)[C@H](OP(=O)(O)O)[C@H]1O [inositol-1,4,5-triphosphate]	inhibit	–	–
Nc1nc2c(ncn2[C@@H]2O[C@H](COP(=O)(O)OP(=O)(O)OP(O)(O)=S)[C@@H](O)[C@H]2O)c(=O)[nH]1 [GTPγS]	inhibit	–	–
[Ca+2] [Ca^2+]	inhibit	–	–
[Ba+2] [Ba^2+]	–	90%	does not affect
